Test results from ChEMBL document CHEMBL2040824, “The impact of ionization States of matrix metalloproteinase inhibitors on docking-based inhibitor design” (ACS Med Chem Lett, 2011).
The source made the active and inactive calls. The calls are words filed in the database; no cut-off is given here.

Key:
[1] = target: Matrix metalloproteinase-9 (Homo sapiens, UniProt P14780); experiment: Inhibition of MMP9
SVR = experiment: Antiproliferative activity against mouse SVR cells at 20 ug/ml after 48 hrs by Coulter counting method; format: functional, cell-based

Matrix metalloproteinase-9, sequence (P14780 whole entry): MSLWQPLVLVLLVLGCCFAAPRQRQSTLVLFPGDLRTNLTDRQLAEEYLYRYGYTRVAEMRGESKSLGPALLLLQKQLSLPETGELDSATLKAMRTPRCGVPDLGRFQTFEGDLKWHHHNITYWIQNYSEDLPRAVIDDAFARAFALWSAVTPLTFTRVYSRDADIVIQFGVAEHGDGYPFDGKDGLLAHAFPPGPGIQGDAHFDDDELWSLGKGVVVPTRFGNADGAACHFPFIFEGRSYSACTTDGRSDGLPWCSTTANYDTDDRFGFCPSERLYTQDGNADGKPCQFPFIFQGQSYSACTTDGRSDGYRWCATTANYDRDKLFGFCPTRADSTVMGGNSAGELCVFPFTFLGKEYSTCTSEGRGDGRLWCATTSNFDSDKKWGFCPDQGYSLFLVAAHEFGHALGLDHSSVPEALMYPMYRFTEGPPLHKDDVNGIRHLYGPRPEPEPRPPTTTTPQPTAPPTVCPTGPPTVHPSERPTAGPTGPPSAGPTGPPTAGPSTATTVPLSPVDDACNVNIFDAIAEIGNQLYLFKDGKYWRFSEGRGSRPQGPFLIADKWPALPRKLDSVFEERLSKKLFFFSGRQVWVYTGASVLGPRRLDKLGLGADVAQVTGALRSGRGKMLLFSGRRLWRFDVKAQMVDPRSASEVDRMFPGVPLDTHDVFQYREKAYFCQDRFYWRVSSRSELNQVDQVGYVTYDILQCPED

SMILES	IC50 [1] [nM]	Activity (SVR)
CN(C)c1ccc(/C=C/C(=O)c2ccco2)cc1	–	Active
CCC1(CC)OC[C@H](C(CS(=O)(=O)c2ccc(Oc3ccc(OC(F)(F)F)cc3)cc2)N(O)C=O)O1 (some centres not stated)	1.1	–
Cc1cccc(-c2nnc(-c3cccc(NC(=O)c4ccco4)c3)o2)c1	–	Active
Cc1cc(C)n(-c2nc(-c3ccccc3)cc(-c3ccccc3)n2)n1	–	Active
Brc1ccc(/C=N/Nc2nc(-c3ccccc3)cc(-c3ccccc3)n2)cc1	–	Active
O=CN(O)C(CS(=O)(=O)c1ccc(Oc2ccc(OC(F)(F)F)cc2)cc1)C(CO)CO (configuration not stated)	0.49	–
COc1cc(/C=C/C(=O)CC(=O)/C=C/c2ccc(O)c(OC)c2)ccc1O	–	Active

Now from value to molecule, other results behind:

IC50 [1] [nM]	SMILES	Activity (SVR)
0.34	CC1(C)NC(=O)N(CC(CS(=O)(=O)c2ccc(-c3ccc(OC(F)(F)F)cc3)cc2)N(O)C=O)C1=O (configuration not stated)	–
37	CC1(C)NC(=O)N(CC(CS(=O)(=O)c2ccc(Oc3ccc(Cl)cc3)cc2)N(O)C=O)C1=O (configuration not stated)	–
1.1	C[C@@H]1OC(C)(C)O[C@H]1C(CS(=O)(=O)c1ccc(Oc2ccc(OC(F)(F)F)cc2)cc1)N(O)C=O (some centres not stated)	–
2	CC1(C)C[C@@H](C(CS(=O)(=O)c2ccc(Oc3ccc(OC(F)(F)F)cc3)cc2)N(O)C=O)N(S(C)(=O)=O)C1 (some centres not stated)	–
0.5	CC1(C)OC[C@H](C(CS(=O)(=O)c2ccc(Oc3ccc(OC(F)(F)F)cc3)cc2)N(O)C=O)O1 (some centres not stated)	–
